Measured values taken from patent US10669272B2, “Substituted naphthyridinone compounds useful as T cell activators” (BRISTOL-MYERS SQUIBB COMPANY, priority 2018, dated 2020).
pEC50, pIC50: −log10 of the molar value. Read-outs that look alike come from different tables or passages of the source.

Legend:
human DGKα = target: T1, human DGKα (Homo sapiens, UniProt P23743); test: DGKα LIPGLO assay (extruded liposome substrate), in vitro DGK inhibition; type: biochemical; details: read-out: DGKa LIPGLO IC50
T1 construct: TVMV protease cleavage site (C); Hexa-His (C); made in house; host or cells: Sf9 insect cells (baculovirus, Bac-to-Bac)

human DGKζ = target: T2, human DGKζ (Homo sapiens, UniProt Q13574); test: DGKζ LIPGLO assay (extruded liposome substrate), in vitro DGK inhibition; type: biochemical; details: read-out: DGKz LIPGLO IC50
T2 construct: TVMV protease cleavage site (C); Hexa-His (C); made in house; host or cells: Sf9 insect cells (baculovirus, Bac-to-Bac)

naïve human CD8 T cells = test: Human CD8 T cells IFN-γ assay; type: cell-based; details: read-out: HuCD8 INFG Normalized EC50;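 also: Naïve human CD8 T cells stimulated with plate-bound anti-CD3 and soluble anti-CD28, IFN-γ in supernatant quantified by AlphaLISA and converted to pg/mL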
Human venous whole blood = test: Human whole blood IFN-γ assay; type: cell-based; details: human whole blood, read-out: INFg Whole Blood Normalized Agonist EC50;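 also: blood from healthy donors exposed to compound for 1 h before stimulation with anti-CD3 and anti-CD28 at 1 µg/mL each, IFN-γ quantified in supernatant by AlphaLISA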
[1] = Homo sapiens, T-cell, 20 h, normalized to 3 μM reference compound with anti-CD3 plus anti-CD28 as 100% activation
[2] = normalized to 3 μM reference compound with anti-CD3 plus anti-CD28 as 100% activation
[3] = Homo sapiens, T-cell, 20 h, naïve human CD8 T cells, anti-CD3 plus anti-CD28, 3 μM reference compound = 100% activation
[4] = Homo sapiens, 24 h, anti-CD3 plus anti-CD28, 24 hours, 3 μM reference compound = 100% activation
[5] = naïve human CD8 T cells, anti-CD3 plus anti-CD28, 3 μM reference compound = 100% activation
[6] = anti-CD3 plus anti-CD28, 24 hours, 3 μM reference compound = 100% activation
[7] = Homo sapiens, 24 h, normalized to 3 μM reference compound with anti-CD3 plus anti-CD28 as 100% activation

T2 sequence (Q13574 with tags, fused parts or gaps isoform Q13574-4): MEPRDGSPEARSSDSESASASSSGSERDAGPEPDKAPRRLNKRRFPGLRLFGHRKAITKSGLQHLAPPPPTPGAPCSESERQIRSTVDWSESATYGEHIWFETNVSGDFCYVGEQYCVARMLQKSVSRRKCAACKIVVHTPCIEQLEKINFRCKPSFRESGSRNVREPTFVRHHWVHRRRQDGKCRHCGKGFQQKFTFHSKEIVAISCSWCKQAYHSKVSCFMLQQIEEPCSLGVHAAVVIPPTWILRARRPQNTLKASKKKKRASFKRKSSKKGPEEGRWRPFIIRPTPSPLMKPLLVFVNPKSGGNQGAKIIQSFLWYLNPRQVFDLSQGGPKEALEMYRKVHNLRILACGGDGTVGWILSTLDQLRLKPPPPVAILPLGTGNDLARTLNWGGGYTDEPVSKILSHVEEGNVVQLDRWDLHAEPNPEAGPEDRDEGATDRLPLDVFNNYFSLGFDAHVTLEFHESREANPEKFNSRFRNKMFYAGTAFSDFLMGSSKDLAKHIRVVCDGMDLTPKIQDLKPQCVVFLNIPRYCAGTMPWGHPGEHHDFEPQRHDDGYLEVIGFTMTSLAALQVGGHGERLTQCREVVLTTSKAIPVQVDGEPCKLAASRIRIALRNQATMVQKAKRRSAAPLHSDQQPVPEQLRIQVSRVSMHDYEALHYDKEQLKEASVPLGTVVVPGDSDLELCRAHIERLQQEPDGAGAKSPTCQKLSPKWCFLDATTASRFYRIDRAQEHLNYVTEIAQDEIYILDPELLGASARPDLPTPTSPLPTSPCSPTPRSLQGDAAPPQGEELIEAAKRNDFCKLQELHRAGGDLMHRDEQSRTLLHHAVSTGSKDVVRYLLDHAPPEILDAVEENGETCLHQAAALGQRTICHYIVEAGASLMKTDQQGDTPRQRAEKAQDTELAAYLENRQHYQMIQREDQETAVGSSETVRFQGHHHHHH
T1 sequence (P23743 with tags, fused parts or gaps): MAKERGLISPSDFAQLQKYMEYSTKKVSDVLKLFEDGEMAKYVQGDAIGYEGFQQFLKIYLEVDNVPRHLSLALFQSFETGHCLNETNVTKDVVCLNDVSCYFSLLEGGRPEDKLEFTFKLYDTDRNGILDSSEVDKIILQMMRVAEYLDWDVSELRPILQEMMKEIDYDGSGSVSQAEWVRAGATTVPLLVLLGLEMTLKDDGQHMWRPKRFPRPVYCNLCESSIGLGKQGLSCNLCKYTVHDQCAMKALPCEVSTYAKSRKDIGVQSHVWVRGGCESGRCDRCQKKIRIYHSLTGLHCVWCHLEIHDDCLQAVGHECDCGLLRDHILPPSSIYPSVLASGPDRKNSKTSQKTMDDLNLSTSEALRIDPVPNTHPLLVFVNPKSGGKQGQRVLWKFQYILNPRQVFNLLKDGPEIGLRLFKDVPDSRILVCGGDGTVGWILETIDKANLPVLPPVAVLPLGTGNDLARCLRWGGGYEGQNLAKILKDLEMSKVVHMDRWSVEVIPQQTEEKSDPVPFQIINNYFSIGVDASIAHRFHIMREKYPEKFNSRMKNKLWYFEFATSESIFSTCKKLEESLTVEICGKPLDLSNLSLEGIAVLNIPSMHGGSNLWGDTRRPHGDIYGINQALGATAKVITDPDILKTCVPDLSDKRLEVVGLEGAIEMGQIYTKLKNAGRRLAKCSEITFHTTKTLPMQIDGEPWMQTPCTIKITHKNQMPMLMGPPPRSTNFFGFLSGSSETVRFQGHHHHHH

Structure (SMILES) | pIC50 (human DGKα; liposome (LIPGLO) assay) | pIC50 (human DGKζ; liposome (LIPGLO) assay) | pIC50 (human DGKα; DGKα liposome (LIPGLO) assay) | pIC50 (human DGKζ; DGKζ liposome (LIPGLO) assay) | pEC50 (naïve human CD8 T cells; [1]) | pEC50 (naïve human CD8 T cells; [3]) | pEC50 (Human venous whole blood; [7]) | also measured
C[C@@H]1CN(c2cc(=O)n(C)c3ccc(C#N)nc23)[C@@H](C)CN1C(c1ccc(F)cc1)c1nc(C2CC2)no1 (single isomer, unassigned) [Example 735] |  |  | 6.62 | 7.21 |  | 9.13 |  | pEC50 (Human venous whole blood; [4]): 6.85
C[C@@H]1CN(c2cc(=O)n(C)c3ccc(C#N)nc23)[C@@H](C)CN1C(c1ccc(F)cc1)c1nc(C2CCOCC2)no1 (single isomer, unassigned) [Example 739] |  |  | 6.89 | 6.12 |  | 7.28 |  | pEC50 (Human venous whole blood; [4]): 6.72
C[C@@H]1CN(c2c(C#N)c(=O)n(C)c3ccc(C#N)nc23)CCN1C(c1ccc(F)cc1)c1ccc(C(F)(F)F)cn1 (single isomer, unassigned) [Example 896] |  |  | 6.72 | 6.22 |  | 6.82 |  | pEC50 (Human venous whole blood; [6]): 6.68
Cc1cccc(C(c2ccc(F)cc2)N2CCN(c3c(C#N)c(=O)n(C)c4ccc(C#N)nc34)C[C@H]2C)n1 (single isomer, unassigned) [Example 906] |  |  | 6.00 | 6.03 |  | 7.17 |  | pEC50 (Human venous whole blood; [6]): 6.09
C[C@@H]1CN(c2c(C#N)c(=O)n(C)c3ccc(C#N)nc23)CCN1C(c1ccc(F)cc1)c1ccccn1 (single isomer, unassigned) [Example 918] |  |  | 7.28 | 6.42 |  | 6.89 |  | pEC50 (Human venous whole blood; [6]): 6.42
C[C@@H]1CN(c2c(C#N)c(=O)n(C)c3ccc(C#N)nc23)CCN1C(c1ccc(F)cc1)c1cccc(C(F)(F)F)n1 (single isomer, unassigned) [Example 922] |  |  | 5.82 | 6.11 |  | 6.80 |  | pEC50 (Human venous whole blood; [6]): 6.37
C[C@@H]1CN(c2c(C#N)c(=O)n(C)c3ccc(C#N)nc23)CCN1C(c1cccc(F)c1)c1ccc(F)cn1 (single isomer, unassigned) [Example 925] |  |  | 5.60 | 5.55 |  | 7.04 |  | pEC50 (Human venous whole blood; [6]): 6.15
CC(C)[C@H]1CN(c2c(C#N)c(=O)n(C)c3ccc(C#N)nc23)CCN1C(c1ccc(F)cc1)c1ccc(F)cc1 [Example 12, (S)-8-(4-(bis(4-fluorophenyl)methyl)-3-isopropylpiperazin-1-yl)-5-methyl-6-oxo-5,6-dihydro-1,5-naphthyridine-2,7-dicarbonitrile] | 5.57 | 4.24 |  |  | 5.00 |  | 4.89 | 
C[C@@H]1CN(c2c(F)c(=O)n(C)c3ccc(C#N)nc23)CCN1C(c1ccc(Cl)cc1)c1ccc(Cl)cc1 [Example 34, (R)-8-(4-(bis(4-chlorophenyl)methyl)-3-methylpiperazin-1-yl)-7-fluoro-5-methyl-6-oxo-5,6-dihydro-1,5-naphthyridine-2-carbonitrile] | 6.16 | 6.29 |  |  | 6.74 |  | 5.89 | 
Cn1c(=O)cc(N2CCN(C(c3ccc(F)cc3)c3ccc(F)cc3)C(C#N)C2)c2nc(C#N)ccc21 (stereo not drawn) [Example 43, 8-(4-(bis(4-fluorophenyl)methyl)-3-cyanopiperazin-1-yl)-5-methyl-6-oxo-5,6-dihydro-1,5-naphthyridine-2-carbonitrile] | 5.21 | 5.51 |  |  | 7.06 |  | 5.92 | 
COC(=O)C1CN(c2c(C#N)c(=O)n(C)c3ccc(Br)nc23)CCN1C(c1ccc(F)cc1)c1ccc(F)cc1 (stereo not drawn) [Example 49, Methyl 1-(bis(4-fluorophenyl)methyl)-4-(6-bromo-3-cyano-1-methyl-2-oxo-1,2-dihydro-1,5-naphthyridin-4-yl)piperazine-2-carboxylate] | 4.60 | 5.06 |  |  | 6.31 |  | 5.20 | 
COC(=O)C1CN(C(c2ccc(F)cc2)c2ccc(F)cc2)CCN1c1c(C#N)c(=O)n(C)c2ccc(C#N)nc12 (stereo not drawn) [Example 114, Methyl 4-(bis(4-fluorophenyl)methyl)-1-(3,6-dicyano-1-methyl-2-oxo-1,2-dihydro-1,5-naphthyridin-4-yl)piperazine-2-carboxylate] | 6.38 | 5.80 |  |  | 7.24 |  | 6.31 | 
COC(=O)C1CN(C(c2ccc(F)cc2)c2ccc(F)cc2)CCN1c1c(C#N)c(=O)n(C)c2ccc(Br)nc12 (stereo not drawn) [Example 115, Methyl 4-(bis(4-fluorophenyl)methyl)-1-(6-bromo-3-cyano-1-methyl-2-oxo-1,2-dihydro-1,5-naphthyridin-4-yl)piperazine-2-carboxylate] | 6.00 | 5.06 |  |  | 6.41 |  | 5.70 | 
COc1ccc2c(n1)c(N1C[C@@H](C)N(C(c3ccc(F)cc3)c3ccc(F)cc3)C[C@@H]1C)cc(=O)n2C [Example 241] | 5.08 | 4.77 |  |  | 5.80 |  | 4.80 | 

The next lines start with results.

pIC50 (human DGKα; liposome (LIPGLO) assay) | pIC50 (human DGKζ; liposome (LIPGLO) assay) | pIC50 (human DGKα; DGKα liposome (LIPGLO) assay) | pIC50 (human DGKζ; DGKζ liposome (LIPGLO) assay) | Structure (SMILES) | pEC50 (naïve human CD8 T cells; [1]) | pEC50 (naïve human CD8 T cells; [3]) | pEC50 (Human venous whole blood; [7]) | also measured
6.44 | 5.41 |  |  | C[C@@H]1CN(c2cc(=O)n(C)c3ccc(C#N)nc23)[C@@H](C)CN1C(c1ccc(F)cc1)c1cnsc1 (single isomer, unassigned) [Example 715] | 7.38 |  |  | pEC50 (Human venous whole blood; [2]): 6.17
 |  | 6.80 | 6.32 | C[C@@H]1CN(c2cc(=O)n(C)c3ccc(C#N)nc23)[C@@H](C)CN1C(c1ccc(F)cc1)c1nc(C2CC2)no1 (single isomer, unassigned) [Example 736] |  | 7.60 |  | pEC50 (Human venous whole blood; [4]): 6.82
 |  | 6.06 | 5.85 | C[C@@H]1CN(c2cc(=O)n(C)c3ccc(C#N)nc23)[C@@H](C)CN1C(c1ccc(F)cc1)c1nc(-c2ccc(F)cc2)no1 (single isomer, unassigned) [Example 741] |  |  |  | pEC50 (naïve human CD8 T cells; [5]): 8.43; pEC50 (Human venous whole blood; [4]): 6.68
 |  | 6.82 | 6.10 | C[C@@H]1CN(c2cc(=O)n(C)c3ccc(C#N)nc23)[C@@H](C)CN1C(c1ccc(F)cc1)c1nc(-c2ccc(F)cc2)no1 (single isomer, unassigned) [Example 742] |  |  |  | pEC50 (naïve human CD8 T cells; [5]): 8.82; pEC50 (Human venous whole blood; [6]): 6.85
 |  | 6.13 | 5.89 | Cc1ccc(C(c2ccc(F)cc2)N2CCN(c3c(C#N)c(=O)n(C)c4ccc(C#N)nc34)C[C@H]2C)nc1 (single isomer, unassigned) [Example 915] |  | 7.00 |  | pEC50 (Human venous whole blood; [6]): 6.26
7.01 | 7.23 |  |  | CC[C@H]1CN(C(c2ccc(Cl)cc2)c2ccc(F)cn2)[C@H](CC)CN1c1cc(=O)n(C)c2ccc(C#N)nc12 (single isomer, unassigned) [Example 1033] |  |  | 6.92 | pEC50 (naïve human CD8 T cells; [2]): 6.72
7.19 | 6.47 |  |  | CC[C@H]1CN(C(c2ccc(Cl)cc2)c2ccc(F)cn2)[C@H](CC)CN1c1cc(=O)n(C)c2ccc(C#N)nc12 (single isomer, unassigned) [Example 1034] |  |  |  | pEC50 (naïve human CD8 T cells; [2]): 7.77; pEC50 (Human venous whole blood; [2]): 6.64
7.31 | 6.55 |  |  | CC[C@H]1CN(C(c2ccc(F)cc2)c2ncccc2F)[C@H](CC)CN1c1cc(=O)n(C)c2ccc(C#N)nc12 (single isomer, unassigned) [Example 1037] | 7.85 |  |  | pEC50 (Human venous whole blood; [2]): 6.89
7.11 | 6.07 |  |  | CC[C@H]1CN(C(c2ccc(F)cc2)c2ncccc2F)[C@H](CC)CN1c1cc(=O)n(C)c2ccc(C#N)nc12 (single isomer, unassigned) [Example 1038] |  |  |  | pEC50 (naïve human CD8 T cells; [2]): 7.68; pEC50 (Human venous whole blood; [2]): 6.55
6.19 | 5.85 |  |  | CC[C@@H]1CN(c2cc(=O)n(C)c3ccc(C#N)nc23)[C@@H](C)CN1C(c1ccc(F)cc1)c1ccc(C#N)cc1 (single isomer, unassigned) [Example 1102] | 7.51 |  | 6.66 | 
6.60 | 6.57 |  |  | CC[C@@H]1CN(c2cc(=O)n(C)c3ccc(C#N)nc23)[C@@H](C)CN1C(c1ccc(F)cc1)c1ccc(C#N)cc1 (single isomer, unassigned) [Example 1103] |  |  |  | pEC50 (naïve human CD8 T cells; [2]): 7.68; pEC50 (Human venous whole blood; [2]): 6.59
7.74 | 6.44 |  |  | CC[C@H]1CN(C(C)c2ccc(F)cc2)[C@H](C)CN1c1cc(=O)n(C)c2ccc(C#N)nc12 (single isomer, unassigned) [Example 1135] | 7.66 |  |  | pEC50 (Human venous whole blood; [2]): 6.49
4.01 | 5.29 |  |  | CC(C)[C@H]1CN(c2cc(=O)n(C)c3ccc(C#N)nc23)CCN1C(c1ccc(F)cc1)c1ccc(F)cc1 [Example 10, (S)-8-(4-(bis(4-fluorophenyl)methyl)-3-isopropylpiperazin-1-yl)-5-methyl-6-oxo-5,6-dihydro-1,5-naphthyridine-2-carbonitrile] | 6.82 |  | 5.30 | 
